The results in this text go back to ChEMBL document CHEMBL1240298, “Features of selective kinase inhibitors” (Chem Biol, 2005).

A word on the Ki: it is a measure of affinity in units of concentration, obtained from inhibition or displacement.

The target in experiment [1] is T1, Tyrosine-protein kinase ITK/TSK (Homo sapiens, UniProt Q08881).
T1 sequence (Q08881 whole entry): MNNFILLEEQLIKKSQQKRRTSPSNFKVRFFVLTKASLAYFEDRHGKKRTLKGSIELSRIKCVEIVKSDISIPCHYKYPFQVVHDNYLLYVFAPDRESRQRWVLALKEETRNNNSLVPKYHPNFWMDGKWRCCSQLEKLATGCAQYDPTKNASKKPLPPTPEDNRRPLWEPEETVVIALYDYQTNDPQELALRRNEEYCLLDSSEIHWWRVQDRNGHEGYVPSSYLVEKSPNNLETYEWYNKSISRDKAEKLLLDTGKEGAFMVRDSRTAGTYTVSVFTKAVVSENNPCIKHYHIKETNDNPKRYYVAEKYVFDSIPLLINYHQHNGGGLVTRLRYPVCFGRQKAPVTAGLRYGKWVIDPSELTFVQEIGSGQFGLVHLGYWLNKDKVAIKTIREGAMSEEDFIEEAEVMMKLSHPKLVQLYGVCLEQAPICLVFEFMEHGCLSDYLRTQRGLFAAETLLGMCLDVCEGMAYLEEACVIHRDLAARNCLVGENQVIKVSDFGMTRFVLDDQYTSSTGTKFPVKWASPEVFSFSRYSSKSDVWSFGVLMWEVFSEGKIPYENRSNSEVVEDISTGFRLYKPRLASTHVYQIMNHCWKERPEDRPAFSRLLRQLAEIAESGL

Experiment [2] deals with Tyrosine-protein kinase Lck (Homo sapiens, UniProt P06239).
Sequence of Tyrosine-protein kinase Lck (P06239 whole entry): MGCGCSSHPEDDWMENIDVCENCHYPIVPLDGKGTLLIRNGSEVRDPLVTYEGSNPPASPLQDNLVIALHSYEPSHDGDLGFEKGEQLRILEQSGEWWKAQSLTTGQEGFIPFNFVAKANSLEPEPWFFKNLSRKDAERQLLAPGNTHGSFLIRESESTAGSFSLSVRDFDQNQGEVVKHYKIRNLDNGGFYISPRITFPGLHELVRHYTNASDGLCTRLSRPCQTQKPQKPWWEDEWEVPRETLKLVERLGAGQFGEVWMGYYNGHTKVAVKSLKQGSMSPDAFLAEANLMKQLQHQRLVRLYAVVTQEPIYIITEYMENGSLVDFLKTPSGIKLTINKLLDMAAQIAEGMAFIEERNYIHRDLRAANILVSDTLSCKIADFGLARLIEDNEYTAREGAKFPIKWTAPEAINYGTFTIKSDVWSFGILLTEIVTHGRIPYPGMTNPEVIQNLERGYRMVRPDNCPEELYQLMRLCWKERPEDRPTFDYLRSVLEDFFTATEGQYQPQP

For `COc1cc(C)c(Sc2cnc(NC(=O)c3ccc(CNC(C)C(C)(C)C)cc3)s2)cc1C(=O)N1CCN(C(C)=O)CC1` (configuration not stated), the inhibition constant (Ki) in experiment [1] turned out to be 16 nM.
On to `Cc1cccc(Cl)c1NC(=O)c1ccc2nc(NC(=O)NC(C)(C)C)sc2c1`, for which the inhibition constant (Ki) in experiment [2] was 4 nM.
